Usually IC50 stands for the point on the concentration scale where inhibition reaches its midpoint. Lower therefore signals greater potency.

The first assay has as its system mouse cornea. The experiment in a line: mouse corneal pocket model of angiogenesis. In kind it is in vivo. Conditions: Ptc1-lacZ corneas. On the procedure: To confirm the angiogenic activity of hedgehog in another well accepted model of angiogenesis, we tested the ability of hedgehog protein to induce neovascularization in the mouse corneal model pocket model of angiogenesis.
Animals were anesthetized by pentobarbital intraperitoneal injection (160 mg/kg). Corneal pockets were created in the eyes of each mouse and a 0.34×0.34 mm sucrose albumin sulfate (Bukh Meditec, Vaerlose, DK) pellet coated with hydron polymer type NCC (Interferon Sciences, New Brunswick, N.J.) containing 1 of the agents indicated below was implanted into the corneal pocket. […] mice were divided into 5 groups: control buffer alone; VEGF 300 ng/pellet; Myr-Shh vehicle alone; Myr-Shh 1.5 microg/pellet […]; Myr-Shh+VEGF (1.5 microg/pellet +300 ng/pellet, respectively). Pellets were positioned 1.0 mm from the corneal limbus, and erythromycin ophthalmic ointment (E. Fourera) was applied to each operated eye. The corneas of all mice were routinely examined by slit-lamp biomicroscopy on postoperative day 6 after pellet implantation.
On the same day vessel length and corneal circumferential neovascularity (in degrees) were measured. After completing these measurements, C57BL/6J mice received an intravenous injection of […] of BS-1 lectin FITC-conjugated (Vector Laboratories, Burlingame, Calif.). Thirty minutes later, the animals were sacrificed. The eyes were enucleated and fixed in 1% paraformaldehyde solution. After fixation, the corneas were placed on glass slides and examined by fluorescence microscopy.
To determine the mechanism by which Shh induces angiogenesis both Shh and VEGF-stimulated corneas (see Example 3) were excised and X-gal stained as described in Example 1 after fixation of the whole eye for 1 hour in 1% paraformaldehyde followed by enucleation and fixation of the corneal hemisphere in 1% paraformaldehyde for 30 minutes. […] Endothelial cell immunostaining was done with a rat monoclonal antibody against mouse CD-31 (Pharmigen, San Diego, Calif.) followed by a biotinylated goat anti-rat immunoglobulin secondary antibody. Smooth muscle cells and pericytes were identified with a mouse monoclonal antibody against SM a-actin conjugated with alkaline-phosphatase (Sigma, St. Louis, Mo.) and fibroblasts were identified using an anti-vimentin antibody (Sigma, St. Louis, Mo.).
We then immunostained the Shh-induced corneas with a rabbit polyclonal anti-VEGF antibody (Santa Cruz Biotechnology, Santa Cruz, Calif.) with a biotinylated goat anti-rabbit immunoglobulin as secondary antibody.
Take VEGF [reference compound]: the “X-gal staining (Ptc 1 expression) of corneas” value is listed as “did not stain with X-gal”.

The assay is the same for the next values; noted with them: compared with Shh.
On to VEGF [reference compound], for which the “mean number of vascular lumens per cross section” value is recorded as “higher”.

The same assay, now with this note: pellet: Myr-Shh 1.5 microg or VEGF 300 ng.
Regarding VEGF [reference compound], the maximum vessel lengths is 700±70 um and the “vessel diameters (mean)” value was determined as 8±3 um.

Still in this assay, the particulars now being: pellet: Myr-Shh 1.5 microg or VEGF 300 ng, day 6.
VEGF [reference compound]: the neovascular growth entry is recorded as “significant neovascular growth”.

Another assay concerns Hedgehog pathway signaling (Shh-induced Gli-transcription) in 10T1/2(s12) cells. Briefly: Gli-Luc assay, OCT-SHH-induced luciferase reporter. In kind it is cell-based, mouse. The note with it: Gli-Luc response, OCT-SHH 0.3 μg/ml. As to the method:
Compounds to be tested are dissolved in DMSO to a concentration of 10 mM, and stored at −20° C. To activate the Hedgehog pathway in the assay cells, an octylated (lipid-modified) form of the N-terminal fragment of the Sonic Hedgehog protein (OCT-SHH) is used. This N-terminal SHH fragment is produced bacterially.
Compounds may be tested in the “Gli-Luc” assay below, using the cell line 10T(s12), wherein the cells contain a Hedgehog-responsive reporter construct utilizing Luciferase as the reporter gene. In this way, Hedgehog pathway signaling activity can be measured via the Gli-Luc response.
10t1/2(s12) cells are plated in a 96-well micro-titer plate (MTP) at 20,000 cells/well in full medium [DMEM with 10% FBS]. Then plates are placed in the incubator for incubation overnight (O/N), at 37° C. and 5% CO2. After 24 h, the medium is replaced with Luciferase-assay medium (DMEM with 0.5% FBS). Compounds are thawed and diluted in assay medium at 3:1000 (about 300-fold) resulting in a starting concentration of about 30 μM.
Subsequently, 150 μl of each 30 μM sample is added to the first wells (in triplicate). The MTP samples are then diluted at 3-fold dilutions to a total of seven wells, ultimately resulting in a regiment of seven dilutions in triplicate, for each compound. Next, the protein ligand OCT-SHH is diluted in Luciferase-assay medium and added to each well at a final concentration of 0.3 μg/ml. Plates are then returned to the incubator for further incubation O/N, at 37° C. and 5% CO2. After about 24 h, plates are removed from the incubator and the medium is aspirated/discarded. Wells are washed once with assay buffer [PBS+1 mM Mg^2+ and 1 mM Ca^2+]. Then 50 μl of assay buffer is added to each well. The Luciferase assay reagent is prepared as described by the vendor (LucLite kit from Packard), and 50 μl is added to each well. Plates are incubated at room temperature (RT) for about 30 minutes after which the signals are read, again at RT, on a Topcount (Packard).
The discovery of compounds that inhibit Shh-induced Gli-transcription exemplifies the utility of the claims in this patent.
Background: In a reporter assay the amount or activity of a reporter protein is the signal.
Consider `CC(c1nc2ccccc2c(=O)n1-c1ccc(F)cc1)N(C)C(=O)Nc1ccc(-c2ccccc2)cc1` (stereo not drawn) [Compound 56], for which the IC50 was less than 10 µM.
In turn, `CC(c1nc2ccccc2c(=O)n1-c1ccc(F)cc1)N(C)C(=O)Nc1cccc(C#N)c1` (stereo not drawn) [Compound 51] yielded an IC50 of less than 5 µM.
Same read-out and setting: in the case of `CC(c1nc2ccccc2c(=O)n1-c1ccc(F)cc1)N1CCN(C(=O)Nc2ccc(Cl)c(Cl)c2)CC1` (stereo not drawn) [Compound 43] it was less than 10 µM; in that of `O=C(Cc1cccc(C(F)(F)F)c1)NCCc1nc2ccccc2c(=O)n1-c1ccc(F)cc1` [Compound 50], less than 1 µM; in that of `CCC(c1nc2ccccc2c(=O)[nH]1)N1CCN(C(=O)Nc2ccc(Cl)c(Cl)c2)C(C)C1` (stereo not drawn) [Compound 45], less than 5 µM.
The same measure, in the same setting: for `CCC(C)N(CCC(=O)NC1CCCc2ccccc21)C(=O)COc1ccc(Cl)cc1` (stereo not drawn) [Compound 49] the value was less than 1 µM; for `CC(c1nc2ccccc2c(=O)n1-c1ccc(F)cc1)N(C)C(=O)Nc1ccc(Cl)cc1[N+](=O)[O-]` (stereo not drawn) [Compound 66], less than 10 µM; for `CC(c1nc2ccccc2c(=O)n1-c1ccc(F)cc1)N(C)C(=O)Nc1ccc([N+](=O)[O-])c(Cl)c1` (stereo not drawn) [Compound 62], less than 1 µM.
Consider `CC(c1nc2ccccc2c(=O)n1-c1ccc(F)cc1)N(Cc1ccco1)C(=O)Nc1cccc(F)c1` (stereo not drawn) [Compound 31], for which the IC50 was less than 10 µM.
The same measure, in the same setting: in the case of `CC(C)c1cccc(NC(=O)N(C)C(C)c2nc3ccccc3c(=O)n2-c2ccc(F)cc2)c1` (stereo not drawn) [Compound 57] it was less than 10 µM; in that of `CCCN(C(=O)Nc1cccc(Cl)c1)C(C)c1nc2ccccc2c(=O)n1-c1ccc(F)cc1` (stereo not drawn) [Compound 34], less than 5 µM; in that of `CC(c1nc2ccccc2c(=O)n1-c1ccc(F)cc1)N(C)C(=O)Nc1cc(Cl)nc(Cl)c1` (stereo not drawn) [Compound 58], less than 5 µM.
The same measure, in the same setting: for `O=C(NCc1nc2ccccc2c(=O)n1-c1ccc(F)cc1)Nc1ccc(Cl)c(C(F)(F)F)c1` [Compound 5] the value was less than 0.1 µM.
As for `Cc1c(NC(=O)N(C)C(C)c2nc3ccccc3c(=O)n2-c2ccc(F)cc2)cccc1[N+](=O)[O-]` (stereo not drawn) [Compound 59], the IC50 was less than 5 µM.
Same read-out and setting: for `CCCN(C(=O)Nc1cccc(OC)c1)C(C)c1nc2ccccc2c(=O)n1-c1ccc(F)cc1` (stereo not drawn) [Compound 38] the value was less than 5 µM; for `CC(c1nc2ccccc2c(=O)n1-c1ccc(F)cc1)N(C)C(=O)Nc1ccc(SC(F)(F)F)cc1` (stereo not drawn) [Compound 60], less than 5 µM; for `CCCCc1ccc(C(=O)N(Cc2ccccc2)C(CC)c2nc3ccccc3c(=O)n2-c2ccc(C)cc2)cc1` (stereo not drawn) [Compound 40], less than 10 µM.
In turn, `CC(c1nc2ccccc2c(=O)n1-c1ccc(F)cc1)N(C)C(=O)Nc1ccc([N+](=O)[O-])c(C(F)(F)F)c1` (stereo not drawn) [Compound 32] registered an IC50 of less than 5 µM.
Take `CCCN(CCC(=O)NC1CCCc2ccccc21)C(=O)c1cc(OC)cc(OC)c1` (stereo not drawn) [Compound 47]: the IC50 is less than 5 µM.
Same read-out and setting: for `CCC(c1nc2ccccc2c(=O)n1-c1ccc(C)cc1)N(CCc1ccccc1)C(=O)CCCCF` (stereo not drawn) [Compound 39] the value was less than 5 µM.
Same read-out and setting: in the case of `CCCN(C(=O)Nc1cccc(C(F)(F)F)c1)C(C)c1nc2ccccc2c(=O)n1-c1ccc(F)cc1` (stereo not drawn) [Compound 36] it was less than 5 µM; in that of `CCOC(=O)c1ccccc1NC(=O)N(C)C(C)c1nc2ccccc2c(=O)n1-c1ccc(F)cc1` (stereo not drawn) [Compound 63], less than 10 µM; in that of `O=C(NCCCc1nc2ccccc2c(=O)n1-c1ccc(F)cc1)Nc1cccc(C(F)(F)F)c1` [Compound 74], less than 5 µM.
On to `CC(c1nc2ccccc2c(=O)n1-c1ccc(F)cc1)N(C)C(=O)Nc1ccc(C(F)(F)F)cc1` (stereo not drawn) [Compound 54], for which the IC50 was less than 5 µM.
Same read-out and setting: for `O=C(Nc1cccc(C(F)(F)F)c1)NC(c1nc2ccccc2c(=O)n1-c1ccc(F)cc1)C1CC1` (stereo not drawn) [Compound 75] the value was less than 5 µM; for `O=C(NCc1nc2ccccc2c(=O)n1-c1ccc(F)cc1)Nc1ccc(Cl)c([N+](=O)[O-])c1` [Compound 69], less than 0.5 µM; for `CC(c1nc2ccccc2c(=O)n1-c1ccc(F)cc1)N(C)C(=O)Nc1cccc(C(F)(F)F)c1` (stereo not drawn) [Compound 11], less than 5 µM.
Still for that read-out and setting: for `CC(NC(=O)Nc1cccc(C(F)(F)F)c1)c1nc2ccccc2c(=O)n1-c1ccc(F)cc1` (stereo not drawn) [Compound 73] the value was less than 5 µM.
For `O=C(NCc1nc2ccccc2c(=O)n1-c1ccc(F)cc1)Nc1ccc(Cl)c(Cl)c1` [Compound 68], the IC50 is less than 1 µM.
Same read-out and setting: in the case of `CCC(C)N(CCC(=O)NC1CCCc2ccccc21)C(=O)c1cccc2ccccc12` (stereo not drawn) [Compound 48] it was less than 0.5 µM.
Same read-out and setting: in the case of `CC(c1nc2ccccc2c(=O)n1-c1ccc(F)cc1)N(C)C(=O)Nc1ccc(Cl)c(C(F)(F)F)c1` (stereo not drawn) [Compound 61] it was less than 1 µM; in that of `O=C(NCc1nc2ccccc2c(=O)n1-c1ccc(F)cc1)Nc1cc(Cl)nc(Cl)c1` [Compound 6], less than 0.5 µM; in that of `CCOOC(=O)c1cccc(NC(=O)N(C)C(C)c2nc3ccccc3c(=O)n2-c2ccc(F)cc2)c1` (stereo not drawn) [Compound 65], less than 10 µM.
Same read-out and setting: in the case of `CCC(c1nc2ccccc2c(=O)[nH]1)N1CCN(C(=O)c2ccc(-c3ccccc3)cc2)C(C)C1` (stereo not drawn) [Compound 46] it was less than 0.5 µM.
The compound `CC(c1nc2ccccc2c(=O)n1-c1ccc(F)cc1)N(C)C(=O)Nc1cccc(SC(F)(F)F)c1` (stereo not drawn) [Compound 52] displayed an IC50 of less than 1 µM.
On the same count and under the same terms, for `CCCCCCCCC(=O)N(CCCCC)C(C)c1nc2ccccc2c(=O)n1-c1ccccc1` (stereo not drawn) [Compound 41] the value was less than 10 µM.
`CC(c1nc2ccccc2c(=O)n1-c1ccc(F)cc1)N(C)C(=O)Nc1cccc(F)c1` (stereo not drawn) [Compound 55] displayed an IC50 of less than 5 µM.
Compound `COc1cccc(NC(=O)NCc2nc3ccccc3c(=O)n2-c2ccc(F)cc2)c1C` [Compound 71] had an IC50 of less than 10 µM.
On the same count and under the same terms, in the case of `CCC(=O)N1CCN(C(CC)c2nc3ccccc3c(=O)n2-c2ccc(C)cc2)C(C)C1` (stereo not drawn) [Compound 42] it was less than 5 µM; in that of `O=C(NCc1nc2ccccc2c(=O)n1-c1ccc(F)cc1)Nc1cccc(C(F)(F)F)c1` [Compound 44], less than 1 µM; in that of `CC(c1nc2ccccc2c(=O)n1-c1ccc(F)cc1)N(C)C(=O)Nc1ccc(Cl)c(Cl)c1` (stereo not drawn) [Compound 53], less than 1 µM.
Same read-out and setting: for `CC(c1nc2ccccc2c(=O)n1-c1ccc(F)cc1)N(C)C(=O)Nc1ccc([N+](=O)[O-])cc1Cl` (stereo not drawn) [Compound 64] the value was less than 10 µM; for `Cc1c(NC(=O)NCc2nc3ccccc3c(=O)n2-c2ccc(F)cc2)cccc1SC(F)(F)F` [Compound 67], less than 5 µM.
